Results as given in patent US7858635B2 (priority 2005, dated 2010).
Like-named read-outs stand apart in the source and are kept apart here.

Legend:
M1 muscarinic receptor = target: T1, M1 muscarinic receptor (Homo sapiens, UniProt P11229); experiment: Functional mobilization of intracellular calcium (FLIPR, Fluo-3), M1-CHO cells; format: cell-based; settings: for Emax: 100% efficacy is the maximum response obtained with the Carbachol control, read-out: M1 Efficacy
T1 construct: expressed in transfected cells; host or cells: CHO cells (M1-CHO, under zeocin and G418 selection)
T1 sequence (P11229 1-460): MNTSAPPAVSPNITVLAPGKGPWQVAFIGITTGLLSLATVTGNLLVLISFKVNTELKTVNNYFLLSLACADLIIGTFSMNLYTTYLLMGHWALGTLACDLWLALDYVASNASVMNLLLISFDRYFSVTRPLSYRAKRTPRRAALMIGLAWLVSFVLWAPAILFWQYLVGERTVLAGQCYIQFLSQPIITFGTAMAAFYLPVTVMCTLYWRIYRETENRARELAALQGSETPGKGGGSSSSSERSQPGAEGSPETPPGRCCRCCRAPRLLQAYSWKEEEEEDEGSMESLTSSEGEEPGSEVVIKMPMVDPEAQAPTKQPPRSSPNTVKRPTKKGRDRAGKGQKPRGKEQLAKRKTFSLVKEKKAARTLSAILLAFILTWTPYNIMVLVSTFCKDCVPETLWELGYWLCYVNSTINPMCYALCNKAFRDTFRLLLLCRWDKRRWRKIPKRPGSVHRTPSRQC
Experimental: (§1) CHO cells expressing muscarinic receptors (M1 to M5) are grown as monolayers in tissue culture flasks at 37° C. in a humidified atmosphere containing 5% CO2 and passaged every 3-5 days. The growth media is Dulbecco's modified eagles medium (DMEM, Gibco Cat#12430-054), containing 25 mM Hepes and supplemented with Fetal Bovine Serum (Hyclone, cat# SH30071.03), 0.1 mM of MEM non-essential amino acids (GIBCO, Cat# 11140-050), 1 mM MEM Sodium Pyruvate (GIBCO Cat# 11360-070) and 100 units/ml of Penicillin G and 100 μg/ml of Streptomycin (GIBCO Cat# 15140-122). The recombinant muscarinic receptor cell lines are grown under antibiotic pressure with media containing 25 μm/ml zeocin and 500 μg/ml G418 (M1-CHO), 4 μg/ml puromycin, 50 μg/ml zeocin and 2.5 μm/ml blasticidin (M2 and M4-CHO) or 50 μg/ml zeocin and 4 μg/ml puromycin (M3 and M5-CHO).
(§2) Cells are harvested at 80-90% confluence using Versene (GIBCO Cat# 15040-066), collected by centrifugation and seeded 18-24 hrs prior to running the calcium assay at a density of 5,000-10,000 cells/well in […], clear-bottomed 384-well plates (BD Biocoat, poly-D-lysine, Cat#356663). The day of the experiment, the cells are washed with a plate washer (Bioteck Instruments, ELX 405) using bath1 buffer (140-mM NaCl, 4.5-mM KCL, 2-mM CaCl2, 1-mM MgCl2, 10-mM Hepes-Na, 10-mM Glucose, pH 7.4, with NaOH) containing 1 mM Probenecid. Next, the calcium dye Fluo-3 (25 μl/well of Fluo-3 μM at 4 μM, Molecular Probes F-1241, in Bath 1 buffer containing 1 mM Probenecid) is added to the 25 μl of Bath 1 remaining in each well after the plate wash and the dye is loaded at 37° C. in the tissue culture incubator for 60-90 min. The fluorescent dye is removed using the plate washer with Bath 1 containing 1 mM Probenecid, leaving 25 μl/well of this solution after the wash. Alternatively, cells can be loaded with the calcium indicator from Molecular Devices (Calcium 3 Assay Reagents, Cat # R7181) adding 5 μl of a 5× solution dye in Bath 1 containing 1 mM Probenecid (10 ml per dye flask cat# R7182 to generate a solution 20×) to 20 μl of the same buffer. After loading for 60 min, the experiment can be run without having to remove the dye.
(§3) Compounds are prepared at a 2× fold concentration in a 96-well plate (round bottom, Costar Corning cat# 3656), by reconstituting the pre-spotted compounds in bath 1 containing 1 mM probenecid. The final concentration DMSO is 0.5%, and the amount of DMSO is normalized across the assay plate. To determine an agonist action of the compounds on muscarinic receptors, the reconstituted compounds are added (25 μl compound/well) to the cell assay plate (containing 25 μl/well) using the multi-channel robotic system of the FLIPR 3 Instrument (Molecular Devices, Sunnyvale, Calif.). To determine a functional inhibitory action of the compounds on muscarinic receptors, the reconstituted compounds are added (25 μl compound/well) to the assay plate and pre-incubated for 15 min prior to adding 25 μl of Carbachol at 3× the EC80 for each muscarinic subtype. Alternatively, the compounds can be co-applied simultaneously with the agonist. In both assay modes, the fluorescence is recorded for 60 sec (excitation wavelength is […] and emission wavelength 540 nm) using the FLIPR 3 instrument.
(§4) The potency, efficacy and selectivity of the muscarinic compounds were evaluated by screening the compound activity across the whole family (M1 to M5 cells). Compounds were also screened for activity on other proteins such as other GPCRs and ion channels to determine selectivity on M4 receptors.

M4 muscarinic receptor = target: T2, M4 muscarinic receptor (Homo sapiens, UniProt P08173); experiment: Functional mobilization of intracellular calcium (FLIPR, Fluo-3), M4-CHO cells; format: cell-based; settings: for Emax: 100% efficacy is the maximum response obtained with the Carbachol control, read-out: M4 Efficacy
T2 construct: expressed in transfected cells; host or cells: CHO cells (M4-CHO, under puromycin, zeocin and blasticidin selection)
T2 sequence (P08173 1-479): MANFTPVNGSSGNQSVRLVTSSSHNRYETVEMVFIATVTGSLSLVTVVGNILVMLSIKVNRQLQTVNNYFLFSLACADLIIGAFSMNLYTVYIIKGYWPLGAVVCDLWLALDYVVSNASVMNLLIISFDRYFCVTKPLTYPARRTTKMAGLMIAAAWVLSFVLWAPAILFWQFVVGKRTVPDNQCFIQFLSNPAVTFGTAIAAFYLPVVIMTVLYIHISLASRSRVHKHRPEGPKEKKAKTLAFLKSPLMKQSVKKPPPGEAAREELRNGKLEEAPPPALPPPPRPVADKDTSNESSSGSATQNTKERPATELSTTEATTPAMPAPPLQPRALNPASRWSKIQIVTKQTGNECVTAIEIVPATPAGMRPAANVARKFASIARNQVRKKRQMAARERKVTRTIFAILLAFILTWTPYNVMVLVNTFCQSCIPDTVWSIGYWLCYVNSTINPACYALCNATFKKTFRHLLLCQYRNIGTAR
Experimental: as §1, §2, §3, §4

[1] = compound nos. 1-454, M1-CHO cells, calcium mobilization
[2] = compound nos. 1-454, M4-CHO cells, calcium mobilization

Row | Structure (SMILES) | M1 Activity (M1 muscarinic receptor; compound nos. 1-454) | Emax (M1 muscarinic receptor; compound nos. 1-454) [%] | M4 Activity (M4 muscarinic receptor; compound nos. 1-454) | Emax (M4 muscarinic receptor; compound nos. 1-454) [%] | M1 Activity (M1 muscarinic receptor; [1]) | M4 Activity (M4 muscarinic receptor; [2]) | Emax (M1 muscarinic receptor; compound nos. 455-509) [%] | M1 Activity (M1 muscarinic receptor; compounds 455-509) | Emax (M4 muscarinic receptor; compound nos. 455-509) [%] | M4 Activity (M4 muscarinic receptor; compounds 455-509)
1 | CN(C)C(=O)N1CC2(CCN(C3CCN(c4cnccn4)CC3)CC2)c2cc(F)ccc21 [compound 444] | +++ (activity was measured to be less than or equal to 0.7 μM) | 65 to 85 | +++ (activity was measured to be less than or equal to 0.1 μM) | 55 to 70 |  |  |  |  |  | 
2 | CC(C)OC(=O)N1C2CCC1CC(N1CCC3(CCc4ccccc43)CC1)C2 (stereo not drawn) [compound 285] |  | < 65 |  | < 55 | ++ (activity was measured to be between 0.7 μM and 3.0 μM) | + (activity was measured to be greater than or equal to 4.0 μM) |  |  |  | 
3 | CC(=O)N[C@H]1CC2(CCN(C3CCCCC3)CC2)c2ccccc21 [compound 196] |  | 65 to 85 |  | < 55 | +++ (activity was measured to be less than or equal to 0.7 μM) | + (activity was measured to be greater than or equal to 4.0 μM) |  |  |  | 
4 | Cc1ccc2c(c1)C1(CCN(C3CC4CCC3C4)CC1)CN2 (stereo not drawn) [compound 350] |  | > 85 |  | > 70 | +++ (activity was measured to be less than or equal to 0.7 μM) | +++ (activity was measured to be less than or equal to 0.1 μM) |  |  |  | 
5 | O=C(O[C@@H]1CCOC1)N1CC2(CCN(C3CC4CCC(C3)N4C(=O)O[C@@H]3CCOC3)CC2)c2cc(F)ccc21 (stereo partly drawn) [compound 112] |  | 65 to 85 |  | < 55 | +++ (activity was measured to be less than or equal to 0.7 μM) | ++ (activity was measured to be between 0.1 μM and 4.0 μM) |  |  |  | 
6 | O=C(O[C@@H]1CCOC1)N1CC2(CCN(C3CC4CCC(C3)N4C(=O)O[C@H]3CCOC3)CC2)c2cc(F)ccc21 (stereo partly drawn) [compound 198] |  | 65 to 85 |  | < 55 | ++ (activity was measured to be between 0.7 μM and 3.0 μM) | + (activity was measured to be greater than or equal to 4.0 μM) |  |  |  | 
7 | O=C(C1CC1)N1CC2(CCN(C3CC4CCC(C3)N4C(=O)O[C@H]3CCOC3)CC2)c2cc(F)ccc21 (stereo partly drawn) [compound 57] |  | 65 to 85 |  | 55 to 70 | +++ (activity was measured to be less than or equal to 0.7 μM) | +++ (activity was measured to be less than or equal to 0.1 μM) |  |  |  | 
8 | CCOC(=O)N1CCC(N2CCC3(CC2)CN(C(=O)c2ccncc2)c2ccc(F)cc23)CC1 [compound 260] |  | 65 to 85 |  | < 55 | +++ (activity was measured to be less than or equal to 0.7 μM) | + (activity was measured to be greater than or equal to 4.0 μM) |  |  |  | 
9 | COCCOC(=O)N1CCC(CN2CCC3(CC2)CN(C(C)=O)c2ccc(F)cc23)CC1 [compound 26] |  | 65 to 85 |  | < 55 | +++ (activity was measured to be less than or equal to 0.7 μM) | ++ (activity was measured to be between 0.1 μM and 4.0 μM) |  |  |  | 
10 | CN(C)C(=O)N1CC2(CCN(C3CCN(c4ncnc5ccsc45)CC3)CC2)c2cc(F)ccc21 [compound 496] |  |  |  |  |  |  | > 100 | + (activity was measured to be greater than or equal to 5.0 μM) | 25 to 100 | ++ (activity was measured to be between 2.0 μM and 5.0 μM)
11 | CN(C)C(=O)N1CC2(CCN(C3CCN(c4nccs4)CC3)CC2)c2ccccc21 [compound 504] |  |  |  |  |  |  | 25 to 100 | + (activity was measured to be greater than or equal to 5.0 μM) | 25 to 100 | ++ (activity was measured to be between 2.0 μM and 5.0 μM)
12 | CC(=O)N1CC2(CCN(CC3CCN(C(=O)O[C@@H]4CCOC4)CC3)CC2)c2cc(C)ccc21 [compound 403] | +++ (activity was measured to be less than or equal to 0.7 μM) | 65 to 85 | + (activity was measured to be greater than or equal to 4.0 μM) | < 55 |  |  |  |  |  | 
13 | COC(=O)N1C2CCC1CC(N1CCC3(CC1)COc1ccc(F)cc13)C2 (stereo not drawn) [compound 156] |  | 65 to 85 |  | > 70 | +++ (activity was measured to be less than or equal to 0.7 μM) | +++ (activity was measured to be less than or equal to 0.1 μM) |  |  |  | 
14 | CC(C)OC(=O)N1C2CCC1CC(N1CCC3(CC1)CN(S(C)(=O)=O)c1ccc(F)cc13)C2 (stereo not drawn) [compound 170] |  | 65 to 85 |  | > 70 | ++ (activity was measured to be between 0.7 μM and 3.0 μM) | + (activity was measured to be greater than or equal to 4.0 μM) |  |  |  | 
15 | CC(C)OC(=O)N1C2CCC1CC(N1CCC3(CC1)CN(C(=O)N(C)C)c1ccc(F)cc13)C2 (stereo not drawn) [compound 108] |  | 65 to 85 |  | < 55 | +++ (activity was measured to be less than or equal to 0.7 μM) | ++ (activity was measured to be between 0.1 μM and 4.0 μM) |  |  |  | 
